Conditions: 313.15 K, Liquid, Vibrating tube method

FC(C(F)(F)F)C(F)(F)F [1,1,1,2,3,3,3-heptafluoropropane]
Conditions	mass density [kg/m3]
13017 kPa	1415.6
13123 kPa	1416.2
13155 kPa	1416.3
13192 kPa	1416.5
13220 kPa	1416.6
13252 kPa	1417
13275 kPa	1417.1
13311 kPa	1417.3
13338 kPa	1417.4
13374 kPa	1417.6
13406 kPa	1417.6
13443 kPa	1418
13476 kPa	1418.1
13514 kPa	1418.3
13538 kPa	1418.3
13572 kPa	1418.6
13615 kPa	1418.9
13653 kPa	1419.1
13686 kPa	1419.4
13729 kPa	1419.6
13757 kPa	1419.6
13800 kPa	1419.9
13833 kPa	1420.1
13862 kPa	1420.3
13891 kPa	1420.4
13925 kPa	1420.6
13959 kPa	1420.6
13998 kPa	1420.9
14038 kPa	1421.2
14071 kPa	1421.4
14109 kPa	1421.6
14152 kPa	1421.9
14190 kPa	1422
14230 kPa	1422.4
14386 kPa	1422.9
14416 kPa	1423.1
14459 kPa	1423.5
14490 kPa	1423.7
14534 kPa	1423.8
14559 kPa	1423.9
14599 kPa	1424.1
14628 kPa	1424.3
14673 kPa	1424.6
14708 kPa	1424.9
14737 kPa	1424.9
14767 kPa	1425
14796 kPa	1425.3
14836 kPa	1425.4
14865 kPa	1425.6
14904 kPa	1425.8
14933 kPa	1425.9
14966 kPa	1426.1
14996 kPa	1426.1
15036 kPa	1426.5
15063 kPa	1426.5
15093 kPa	1426.7
15124 kPa	1426.9
15155 kPa	1427
15184 kPa	1427.2
15210 kPa	1427.4
15246 kPa	1427.5
15282 kPa	1427.7
15313 kPa	1428.1
15346 kPa	1427.9
15372 kPa	1428.3
15412 kPa	1428.5
15443 kPa	1428.6
15484 kPa	1428.7
15512 kPa	1429
15540 kPa	1429
15570 kPa	1429.3
15597 kPa	1429.5
15629 kPa	1429.6
15661 kPa	1429.7
15703 kPa	1429.9
15744 kPa	1430
15771 kPa	1430.2
15813 kPa	1430.6
15845 kPa	1430.6
15887 kPa	1430.9
15924 kPa	1431.2
15947 kPa	1431.2
15988 kPa	1431.4
16024 kPa	1431.6
16051 kPa	1431.6
16091 kPa	1431.9
16136 kPa	1432.1
16169 kPa	1432.2
16230 kPa	1432.6
16290 kPa	1432.9
16326 kPa	1433
16358 kPa	1433.3
16395 kPa	1433.5
16436 kPa	1433.6
16468 kPa	1433.7
16504 kPa	1434
16582 kPa	1434.4
16615 kPa	1434.6
16652 kPa	1434.6
16709 kPa	1435
16737 kPa	1434.9
16807 kPa	1435.4
16839 kPa	1435.5
16867 kPa	1435.7
16905 kPa	1436.1
16942 kPa	1436.1
16974 kPa	1436.3
17006 kPa	1436.5
17039 kPa	1436.6
17075 kPa	1436.8
17104 kPa	1436.8
17132 kPa	1437.2
17165 kPa	1437.3
17197 kPa	1437.3
17235 kPa	1437.5
17267 kPa	1437.6
17294 kPa	1437.8
17334 kPa	1438
17360 kPa	1438.1
17392 kPa	1438.3
17427 kPa	1438.5
17459 kPa	1438.7
17496 kPa	1438.9
17519 kPa	1439
17551 kPa	1439.2
17575 kPa	1439.3
17616 kPa	1439.4
17652 kPa	1439.6
17684 kPa	1439.7
17711 kPa	1440
17743 kPa	1440
17775 kPa	1440.1
17811 kPa	1440.3
17839 kPa	1440.4
17877 kPa	1440.6
17906 kPa	1440.8
17943 kPa	1440.9
17971 kPa	1441.1
18008 kPa	1441.2
18041 kPa	1441.4
18077 kPa	1441.6
18110 kPa	1441.7
18143 kPa	1442
18176 kPa	1442.1
18204 kPa	1442.2
18242 kPa	1442.3
18277 kPa	1442.6
18309 kPa	1442.7
18337 kPa	1442.8
18375 kPa	1443
18403 kPa	1443.1
18441 kPa	1443.2
18469 kPa	1443.5
18507 kPa	1443.6
18691 kPa	1444.6
18725 kPa	1444.7
18755 kPa	1444.7
18796 kPa	1444.9
18830 kPa	1445
18875 kPa	1445.3
18905 kPa	1445.6
18955 kPa	1445.7
18985 kPa	1445.8
19031 kPa	1445.9
19066 kPa	1446.1
19107 kPa	1446.4
19137 kPa	1446.6
19178 kPa	1446.8
19218 kPa	1446.9
19263 kPa	1447.2
19293 kPa	1447.3
19333 kPa	1447.5
19378 kPa	1447.6
19412 kPa	1447.8
19441 kPa	1448
19476 kPa	1448.1
19522 kPa	1448.4
19553 kPa	1448.5
19589 kPa	1448.7
19625 kPa	1448.9
19669 kPa	1448.9
19710 kPa	1449.1
19750 kPa	1449.4
19781 kPa	1449.5
19822 kPa	1449.6
19858 kPa	1449.8
19893 kPa	1450
19930 kPa	1450.1
19961 kPa	1450.3
19996 kPa	1450.4
20037 kPa	1450.7
20072 kPa	1450.8
20108 kPa	1450.8
20144 kPa	1451.1
20180 kPa	1451.2
20221 kPa	1451.4
20257 kPa	1451.5
20293 kPa	1451.8
20324 kPa	1451.8
20366 kPa	1452
20397 kPa	1452.3
20433 kPa	1452.4
20464 kPa	1452.6
20500 kPa	1452.8
20530 kPa	1452.8

Reference: the NIST ThermoML archive (doi:10.1021/je700260f)
